Results taken from patent US4886886A, “Substituted 1,3,4,9-tetrahydropyrano[3,4-b]indole-1-acetic acids” (American Home Products Corporation, priority 1988, dated 1989).

Assays:
Adjuvant Edema = assay: Preventative Adjuvant Edema; assay type: in vivo, Male Sprague Dawley rats; conditions: rat, given days 0, 1 and 2, edema volume on day 3; for Preventative Adjuvant Edema, percent inhibition: 25 mg/kg p.o.
Method: This test is a primary screen for anti-inflammatory drugs.
Male Sprague Dawley rats (180-200 g) are used. The animals have free access to water but food is withdrawn 18 hours before testing.
Drug Preparations and Administration:
Freund's complete adjuvant is prepared by suspending 5 mg of killed and dried Mycobacterium butyricum (Difco) in 1 mL mineral oil. The test compounds are dissolved, or suspended in 0.5% Tween 80 in distilled water according to their solubility. For primary screening all drugs are administered by gastric lavage at the arbitrary dosage of 25 mg/kg, p.o. in a volume of 0.5 mL/100 g body weight to groups of 10 animals.
The method is essentially that described by Wax et al, J. Pharmacol. Exp. Ther., 192, 166-171 (1975). Groups of rats are injected intradermally in the left hind paw with 0.1 mL of Freund's complete adjuvant. The test compound or vehicle is administered immediately before the adjuvant, 24 hours and 48 hours after the adjuvant (days 0, 1 and 2). The injected hind paw volume is measured before the injection of adjuvant and 24 hrs. after the last drug administration (day 3) by means of a plethysmometer (Buxco Electronics Inc.). The difference between the hind paw volume on day 0 and day 3 represents the edema volume. Etodolac (25 mg/kg, p.o.) is included as a positive control.
The mean edema volume (expressed as mL±SEM) is calculated for each group and the percentage protection conferred by the drug is calculated: [formula] where c is the mean edema volume for the vehicle-treated (0.5% Tween 80 in distilled water) controls and t is the mean edema volume for the drug treated group.

[1] = system: Phenylbenzoquinone-induced Writhing; assay: Drug Effects on Phenylbenzoquinone-induced Writhing in Mice; assay type: in vivo, Male Swiss albino mice; conditions: mouse, 60 min before PBQ
Method: A further test used to determine the utility of the compounds of the present invention is designated: Drug Effects on Phenylbenzoquinone-induced Writhing in Mice
The objective of this test is to determine the ability of test drugs to inhibit the nociceptive (pain) response of mice injected with a chemical irritant. This test is a primary screen for both peripheral and centrally acting analgesic drugs.
Male Swiss albino mice (15-25 g). The animals are fasted for 18 hours prior to use but have free access to water.
(§1) Drug Preparation and Administration:
Drugs are dissolved or suspended according to their solubility in 0.5% Tween 80 in distilled water. They are administered by gastric gavage in a volume of 5 mL/kg. For primary screening all drugs are administered at the arbitary dosage of 25 mg/kg, p.o. to a group of 10 mice.
A modification of the method of Siegmund et al, Proc. Soc. Exp. Biol. Med., 95, 729-731 […] is used. Groups of 5 mice are dosed with the test compound or vehicle control. Sixty minutes later the animals are injected i.p. with 0.3 mL/20 g body weight of a 0.02% solution of phenylbenzoquinone (PBQ; 2-phenyl-1,4-benzoquinone) and placed in individual observation boxes. The number of writhing or abdominal squirming movements made by each mouse during the following 15 min. period is counted. The experiment is repeated with another group of 5 mice and the mean number of writhes per mouse for a group of 10 mice is calculated.
Drug treated and vehicle-treated control groups are compared and the percentage protection conferred by the drug is calculated: [formula]
where c=mean number of writhes in the control group
where t=mean number of writhes in the test drug group

[2] = system: reaction of rats to painful stimulation applied to an inflamed paw; assay: Randall Selitto Test in the Rat; assay type: in vivo, Male Sprague Dawley rats; conditions: po, by gastric gavage, 24 hours after adjuvant, pain threshold 1 hour later, read-out: Randall Selitto, ED50 (dose which causes analgesia in 50% of the animals)
Excerpt: An additional test used to determine the utility of the compounds of the present invention is designated: Randall Selitto Test in the Rat
The objective of this test is to assess the potency of peripheral and central acting drugs in inhibiting the reaction of rats to painful stimulation applied to an inflamed paw.
Male Sprague Dawley rats (180-200 g) are used. The animals are fasted overnight prior to drug administration.
as §1
Freund's Complete Adjuvant (FCA) is prepared by suspending 5 mg killed and dried mycobacterium butyricum (Difco) in 1 mL mineral oil. The test compounds are dissolved or suspended in 0.5% Tween 80 in distilled water according to their solubility. They are administered by gastric gavage in a volume of 0.5 mL/100 g body weight to groups of 10 animals.
Ten rats are used per group. The method is essentially that described by Randall and Selitto, Arch. Int. Pharmacodyn. […] The force is continuously monitored by a pointer moving along a linear scale and is measured in grams. […] The pain threshold (vocalization) is determined 1 hour later in the inflamed paw of the treated and control groups. […]
Each animal which has a reading 1.5 times greater than the mean reading of the control-group will be considered as responsive (having an analgesic effect) to treatment. The number of animals showing an analgesic effect is then determined in each group. […]

| SMILES | Preventative Adjuvant Edema, percent inhibition (Adjuvant Edema) [percent inhibition] | Phenylquinone Writhing in Mice, percent inhibition ([1]; 10 mg/kg p.o.) [percent inhibition] | ED50 ([1]; po, 1 h, p.o., read-out: Phenylquinone Writhing in Mice, ED50) [mg/kg] | ED50 [2] [mg/kg] | ED50 (Adjuvant Edema; po, 72 h, p.o.) [mg/kg] | Phenylquinone Writhing in Mice, percent inhibition ([1]; 200 mg/kg p.o.) [percent inhibition] |
| --- | --- | --- | --- | --- | --- | --- |
| C=CCc1cccc2c3c([nH]c12)C(CC)(CC(=O)O)OCC3C (single isomer, unassigned) [Example 3, 1-Ethyl-1,3,4,9-tetrahydro-4-methyl-8-(2-propenyl)-pyrano[3,4-b]indole-1-acetic Acid] | 57 | 20 | – | – | – | – |
| C=CCc1c(F)ccc2c3c([nH]c12)C(CC)(CC(=O)O)OCC3 (stereo not shown) [Example 1, 1-Ethyl-7-fluoro-1,3,4,9-tetrahydro-8-(2-propenyl)-pyrano[3,4-b]indole-1-acetic Acid] | 83 | – | 54.7 | 0.7 | – | – |
| C=CCc1cccc2c3c([nH]c12)C(CC)(CC(=O)O)OCC3 (stereo not shown) [Example 2, 1-Ethyl-1,3,4,9-tetrahydro-8-(2-propenyl)-pyrano[3,4-b]-1-acetic Acid] | – | – | – | – | 9 | 42 |
